# Data from patent US20220324865A1 (Bayer Aktiengesellschaft, priority 2018, published 2022).
# Molecular target: T1, human EP3 receptor (Homo sapiens, UniProt P43115)
# T1 construct: expressed in transfected cells; host or cells: CHO K1 (Chinese Hamster Ovary), stably co-transfected with Galpha16 and mitochondrial clytin
# T1 sequence (P43115 1-390): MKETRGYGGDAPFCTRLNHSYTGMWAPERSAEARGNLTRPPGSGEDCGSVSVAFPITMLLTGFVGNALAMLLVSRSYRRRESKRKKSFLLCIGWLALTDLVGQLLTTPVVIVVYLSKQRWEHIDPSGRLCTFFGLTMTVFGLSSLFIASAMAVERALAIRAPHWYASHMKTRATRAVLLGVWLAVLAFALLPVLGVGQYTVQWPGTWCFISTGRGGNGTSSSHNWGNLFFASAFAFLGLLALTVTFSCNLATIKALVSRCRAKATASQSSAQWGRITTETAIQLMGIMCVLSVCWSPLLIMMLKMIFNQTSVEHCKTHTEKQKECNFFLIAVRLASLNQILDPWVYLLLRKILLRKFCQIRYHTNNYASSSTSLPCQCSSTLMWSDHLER
# Test: Cellular in vitro assay for determining EP3 receptor activity (human EP3 cell line, sulprostone-stimulated calcium luminescence)
# Assay type: cell-based
# Conditions: CHO cells expressing human EP3 and mitochondrial Clytin; antagonist mode, sulprostone at EC50; read-out: EP3 CHO mtCLY ANTAG IC50
# Procedure: B-1. Cellular In Vitro Assay for Determining EP3 Receptor Activity
# The identification of antagonists of the EP3 receptor from humans and rats as well as the quantification of the activity of the compounds of the invention was carried out using recombinant cell lines. These cell lines originally derive from a hamsters ovary epithelial cell (Chinese Hamster Ovary, CHO K1, ATCC: American Type Culture Collection, Manassas, Va. 20108, USA). The test cell lines constitutively express the human or rat EP3 receptors. The naturally Gαi-coupled human and rat EP3 receptors were stably co-transfected with Gα16 into cells that are also stably transfected with a mitochondrial form of the calcium-sensitive photoproteins Clytin (human EP3) or Photina (rat EP3), which, after reconstitution with the cofactor coelenterazine, emit light when there are increases in free calcium concentrations (Nature 1992, 358, 325-327; Gene 1995, 153 (2), 273-274). The resulting EP3 receptor cells react to stimulation of the recombinantly expressed EP3 receptors by the agonist sulprostone with intracellular release of calcium ions, which can be quantified by the resulting photoprotein luminescence. Antagonists inhibit the receptor signaling, leading to reduced calcium release and luminescence. The bioluminescence of the cell lines is detected using a suitable luminometer (Trends Pharmacol. Sci. 1996, 17, 235-237).
# Human and Rat EP3 Cell Lines:
# On the day before the assay, the cells are plated out in culture medium (OptiMEM, 1% FCS, 2 mM glutamine, 10 mM HEPES, 5 μg/ml coelenterazine) in 384-well microtiter plates and kept in a cell incubator (96% humidity, 5% v/v CO2, 37° C.). On the day of the assay, test compounds in various concentrations are placed for 10 minutes in the wells of the microtiter plate before the agonist sulprostone at EC50 concentration is added. The resulting light signal is measured immediately in a luminometer. All concentrations are measured in quadruples.
row,IC50,Compound
1,1.53 nM,Cc1ccc(-c2cn3nc(C(=O)NC4(c5ccc(F)cc5)COC4)cc3c(=O)[nH]2)cc1C [6-55]
2,2.27 nM,CC(C)(C)OC(=O)NCC(NC(=O)c1cc2c(=O)[nH]c(-c3ccc4cccnc4c3)cn2n1)c1ccc(F)cc1 (stereo not shown) [6-29]
3,0.48 nM,CC[C@@H](COC)NC(=O)c1nn2cc(-c3ccc(Cl)c(C)c3)[nH]c(=O)c2c1C1CC1 [6-327]
4,0.99 nM,"Cc1ccc(-c2cn3nc(C(=O)NCC(O)C(F)(F)F)c(C(F)(F)F)c3c(=O)[nH]2)cc1Cl (single isomer, unassigned) [6-160]"
5,1.75 nM,"COc1ccc(C(C)NC(=O)c2nn3cc(-c4ccc5ccccc5c4)[nH]c(=O)c3c2C#N)cn1 (stereo not shown) [Example 3-50, 3-Cyano-N-[1-(6-methoxy-3-pyridyl)ethyl]-6-(2-naphthyl)-4-oxo-5H-pyrazolo[1,5-a]pyrazine-2-carboxamide]"
6,2.1 nM,"Cc1ccc(-c2cn3nc(C(=O)NCC(C)(N)C(F)(F)F)c(C(F)(F)F)c3c(=O)[nH]2)cc1Cl (single isomer, unassigned) [6-170]"
7,2.5 nM,O=C(N[C@@H](c1ccc(F)cc1)C(F)(F)CO)c1nn2cc(-c3ccc(Cl)c(Cl)c3)[nH]c(=O)c2c1C1CCC1 [6-567]
8,4.05 nM,Cc1ccc(-c2cn3nc(C(=O)NC(C)C4CCC4)c(C(F)(F)F)c3c(=O)[nH]2)cc1Cl (racemic) [6-193]
9,5.7 nM,"O=C(NC1CCN(C2CC2)C1)c1nn2cc(-c3ccc4ccccc4c3)[nH]c(=O)c2c1C(F)(F)F (single isomer, unassigned) [6-501]"
10,1.95 nM,COc1ccc(CCNC(=O)c2cc3c(=O)[nH]c(-c4ccc5c(c4)N(C)CCO5)cn3n2)cc1OC [6-86]
11,0.84 nM,Cc1ccc(-c2cn3nc(C(=O)N[C@@H](C)C(C)C)c(C4CC4)c3c(=O)[nH]2)cc1Cl [6-252]
12,5.6 nM,CC(C)(O)[C@@H](NC(=O)c1nn2cc(-c3ccc(C(F)(F)F)c(F)c3)[nH]c(=O)c2c1C1CC1)c1ccc(F)cc1 [6-588]
13,4.2 nM,CN(CCNC(=O)c1nn2cc(-c3ccc4ccccc4c3)[nH]c(=O)c2c1C(F)(F)F)C1CC1 [6-517]
14,1.7 nM,O=C(NC1CCN(CC(F)F)C1)c1nn2cc(-c3ccc4ccccc4c3)[nH]c(=O)c2c1C(F)(F)F (stereo not shown) [6-518]
15,2.98 nM,CC(C)(O)[C@@H](NC(=O)c1nn2cc(-c3ccc(Cl)c(F)c3)[nH]c(=O)c2c1C(F)(F)C(F)(F)F)c1ccc(F)cc1 [6-493]
16,5.55 nM,"O=C(NCC(O)C(F)(F)F)c1nn2cc(-c3ccc4c(c3)OCCO4)[nH]c(=O)c2c1C(F)(F)F (single isomer, unassigned) [6-533]"
17,1.7 nM,CC(C)c1c(C(=O)N[C@@H](c2ccc(F)cc2)C(C)(C)O)nn2cc(-c3ccc(Cl)cc3)[nH]c(=O)c12 [6-672]
18,0.85 nM,CC(C)c1c(C(=O)N[C@H](C)C2CC2)nn2cc(-c3ccc(Cl)c(F)c3)[nH]c(=O)c12 [6-540]
19,7.1 nM,COc1ccc(C2(NC(=O)c3cc4c(=O)[nH]c(-c5ccc6ccccc6c5)cn4n3)CN(C)C2)cn1 [6-63]
20,2.25 nM,C[C@H](NC(=O)c1nn2cc(-c3ccc(Cl)c(F)c3)[nH]c(=O)c2c1C1CC1(F)F)C1CC1 (stereo partly shown) [6-566]
21,3.55 nM,"Cc1ccc(-c2cn3nc(C(=O)NC(C)c4ccc(O)cc4)cc3c(=O)[nH]2)cc1C (single isomer, unassigned) [6-348]"
22,0.86 nM,"Cc1cc(-c2cn3nc(C(=O)N[C@@H](c4ccc(F)cc4)C(F)(F)CO)c(C4CC4)c3c(=O)[nH]2)ccc1Cl [Example 1-172, 6-(4-Chloro-3-methylphenyl)-3-cyclopropyl-N-[(1S)-2,2-difluoro-1-(4-fluorophenyl)-3-hydroxpropyl]-4-oxo-4,5-dihydropyrazolo[1,5-a]pyrazine-2-carboxamide]"

row,IC50,Compound
1,4.65 nM,O=C(N[C@H](CCO)c1ccc(F)cc1)c1cc2c(=O)[nH]c(-c3cnc4ccccc4c3)cn2n1 [6-11]
2,2.55 nM,"Cc1ccc(-c2[nH]c(=O)c3c(C(F)(F)F)c(C(=O)NCCn4ccc(C5CC5)n4)nn3c2C)cc1C [Example 1-130, N-[2-(3-Cyclopropyl-1H-pyrazol-1-yl)ethyl]-6-(3,4-dimethylphenyl)-7-methyl-4-oxo-3-(trifluoromethyl)-4,5-dihydropyrazolo[1,5-a]pyrazine-2-carboxamide]"
3,3.15 nM,COCc1c(C(=O)N[C@@H](c2ccc(F)cc2)C(C)(C)O)nn2cc(-c3ccc(Cl)c(C)c3)[nH]c(=O)c12 [6-623]
4,1.31 nM,O=C(NC(CO)c1ccc(F)cc1)c1cc2c(=O)[nH]c(-c3ccc4cccc(F)c4c3)cn2n1 (stereo not shown) [6-37]
5,2.3 nM,Cc1ccc(-c2cn3nc(C(=O)N[C@@H](C)C4CC4)c(C4CC4)c3c(=O)[nH]2)cc1Cl [6-254]
6,1.1 nM,Cc1ccc(-c2cn3nc(C(=O)N[C@@H](c4ccc(F)cc4)C(F)(F)CO)c(C4CC4)c3c(=O)[nH]2)cc1Cl [6-256]
7,3.95 nM,"CC(COc1cc(Cl)cc(Cl)c1)NC(=O)c1nn2cc(-c3ccc4ccccc4c3)[nH]c(=O)c2c1C(F)(F)F (stereo not shown) [Example 1-118, N-[2-(3,5-Dichlorophenoxy)-1-methylethyl]-6-(2-naphthyl)-4-oxo-3-(trifluoromethyl)-5H-pyrazolo-[1,5-a]pyrazine-2-carboxamide]"
8,7.95 nM,Cc1ccc(-c2cn3nc(C(=O)NC(C)COc4cc(Cl)cc(Cl)c4)cc3c(=O)[nH]2)cc1C (stereo not shown) [6-3]
9,2.8 nM,"Cc1ccc(-c2cn3nc(C(=O)NC(CO)c4ccc(F)cc4)c(C(F)(F)F)c3c(=O)[nH]2)cc1Cl (single isomer, unassigned) [6-155]"
10,6.05 nM,"O=C(Nc1cccc2ncccc12)c1cc2c(=O)[nH]c(-c3ccc4ccccc4c3)cn2n1 [Example 2-45, N-(Chinolin-5-yl)-6-(2-naphthyl)-4-oxo-4,5-dihydropyrazolo[1,5-a]pyrazine-2-carboxamide]"
11,3.97 nM,"COc1ccc(C(C)NC(=O)c2cc3c(=O)[nH]c(-c4ccc(Cl)c(C)c4)cn3n2)cn1 (stereo not shown) [Example 1-107, 6-(4-Chloro-3-methylphenyl)-N-[1-(6-methoxypyridin-3-yl)ethyl]-4-oxo-4,5-dihydropyrazolo[1,5-a]-pyrazine-2-carboxamide]"
12,3.75 nM,"Cc1c(C(=O)NC(C)c2ccc(S(N)(=O)=O)cc2)nn2c(C)c(-c3ccc4ccccc4c3)[nH]c(=O)c12 (stereo not shown) [Example 3-18, 3,7-Dimethyl-6-(2-naphthyl)-4-oxo-N-[1-(4-sulfamoylphenyl)ethyl]-5H-pyrazolo[1,5-a]pyrazine-2-carboxamide]"
13,4.75 nM,Cc1ccc(-c2cn3nc(C(=O)N[C@@H](C)C(C)(C)C)c(C4CC4)c3c(=O)[nH]2)cc1Cl [6-253]
14,1.5 nM,Cc1cc(-c2cn3nc(C(=O)N[C@H](CN4CCOCC4)c4ccc(F)cc4)c(C4CC4)c3c(=O)[nH]2)ccc1Cl [6-337]
15,3.7 nM,"O=C(N[C@@H]1CCCc2ccccc21)c1cc2c(=O)[nH]c(-c3ccc4ccccc4c3)cn2n1 [Example 2-43, 6-(2-Naphthyl)-4-oxo-N-[(7R)-1,2,3,4-tetrahydronaphthalin-1-yl]-4,5-dihydropyrazolo[1,5-a]pyrazine-2-carboxamide]"
16,1.18 nM,"COc1ccc(C(CCO)NC(=O)c2cc3c(=O)[nH]c(-c4ccc5ccccc5c4)cn3n2)cc1 (stereo not shown) [Example 2-2, N-[3-Hydroxy-1-(4-methoxyphenyl)propyl]-6-(2-naphthyl)-4-oxo-4,5-dihydropyrazolo[1,5-a]pyrazine-2-carboxamide]"
17,6.95 nM,"Cc1ccc2c(c1)C(NC(=O)c1nn3cc(-c4cnc5cccc(C)c5c4)[nH]c(=O)c3c1C(C)C)CC(C)(C)O2 (stereo not shown) [Example 4-84, 3-Isopropyl-6-(5-methylquinolin-3-yl)-4-oxo-N-(2,2,6-trimethyl-3,4-dihydro-2H-chromen-4-yl)-4,5-dihydropyrazolo[1,5-a]pyrazine-2-carboxamide]"
18,1.3 nM,"Cc1ccc(-c2cn3nc(C(=O)N[C@H](C)c4ccc(F)cc4)c(C#N)c3c(=O)[nH]2)cc1C [Example 1-73, 3-Cyano-6-(3,4-dimethylphenyl)-N-[(1R)-1-(4-fluorophenyl)ethyl]-4-oxo-4,5-dihydropyrazolo-[1,5-a]pyrazine-2-carboxamide]"
19,1.15 nM,Cc1cc(-c2cn3nc(C(=O)NC4CC(F)(F)C4)c(C4CC4)c3c(=O)[nH]2)ccc1Cl [6-297]
20,4.75 nM,N#Cc1c(C(=O)NC2(c3ccc(F)cc3)CC2)nn2cc(-c3ccc4ccccc4c3)[nH]c(=O)c12 [6-70]
21,4.4 nM,COC[C@@H](C)NC(=O)c1nn2cc(-c3ccc4ccccc4c3)[nH]c(=O)c2c1C(F)(F)F [6-516]
